# Values joined by “and” are separate entries in the source; they are usually repeats but may differ in a detail not shown here. Equal values may be shown once.
# How the values were obtained:
# [1] = biological target: T1, Estrogen Receptors extracted from MCF-7 cells (Homo sapiens, UniProt P03372); experiment: Ligand binding competition assay (Estrogen Receptor), [3H]Estradiol
# T1 construct: Estrogen Receptors extracted from MCF-7 cells; endogenous in cells; host or cells: MCF-7 (ATCC) cytosol
# T1 sequence (P03372 1-595): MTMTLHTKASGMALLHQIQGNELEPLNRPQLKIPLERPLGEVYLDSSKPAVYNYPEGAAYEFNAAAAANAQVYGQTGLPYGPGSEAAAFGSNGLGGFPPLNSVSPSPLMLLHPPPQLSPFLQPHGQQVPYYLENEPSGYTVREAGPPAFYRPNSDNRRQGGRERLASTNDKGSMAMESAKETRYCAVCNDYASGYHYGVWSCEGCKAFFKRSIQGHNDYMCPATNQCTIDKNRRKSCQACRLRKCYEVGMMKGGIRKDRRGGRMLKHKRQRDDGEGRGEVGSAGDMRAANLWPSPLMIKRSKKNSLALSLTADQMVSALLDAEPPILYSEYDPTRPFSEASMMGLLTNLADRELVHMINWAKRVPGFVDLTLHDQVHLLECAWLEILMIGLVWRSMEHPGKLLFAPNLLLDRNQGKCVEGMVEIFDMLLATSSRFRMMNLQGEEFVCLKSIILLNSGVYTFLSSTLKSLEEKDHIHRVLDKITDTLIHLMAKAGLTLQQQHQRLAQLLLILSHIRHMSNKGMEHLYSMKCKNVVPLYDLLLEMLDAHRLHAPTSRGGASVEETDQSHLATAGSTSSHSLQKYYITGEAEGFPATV
# Method: Ligand Binding Competition Assay (Estrogen Receptor)
# ER binding experiments were conducted using Estrogen Receptors extracted from MCF-7 cells as previously described (4). Briefly MCF-7 (from ATCC) were grown to 80% confluency in DMEM medium (GiBCO BRL) suplemented with 10% FCS. Cells were then scraped, and washed twice with PBS. After centrifugation for 10 minutes at 1500 rpm, the cells were resuspended in TM buffer (20 mM Tris, HCl pH 7.4; sodium molybdate, 20 mM). Cells were broken by freeze-thaw lysis of the cell pellets in an equal volume of TM buffer. Cytosolic receptors were prepared by a 105.000 g×60 minutes centrifugation at 0° C., and then stored at −80° C. This cytosolic receptor solution was diluted to 60% in TM buffer, and then incubated with the corresponding ligand for 18 hr at 4° C. in a volume of 100 μl with 50 μg of protein and 2 nM of [3H]Estradiol and two concentrations (1 and 10 μM) of unlabeled test ligand. Assays were terminated by loading 65 μl of the incubate on a 1.2 ml Sephadex TM LH-20 column equilibrated with the TM buffer. The flow through was collected and counted for radioactivity in ready safe scintillant (Beckman).
# [2] = biological target: T2, AhR (Homo sapiens, UniProt P35869); experiment: AhR-mediated transactivation, DRE-TK-CAT stable cell line 47DRE treated with TCDD; format: cell-based; set-up: endogenous in cells; key to AhR T.A. (transcriptional activity): Ago: agonist; N.M.: not measurable; conditions: DRE-TKCAT reporter; for AhR T.A. (transcriptional activity): trans-stilbenes, 10^−9 M TCDD challenged by 10^−7 M compound; for AhR TA (transcriptional activity): cis-stilbenes, 10^−9 M TCDD challenged by 10−7 M compound
# T2 sequence (P35869 11-848): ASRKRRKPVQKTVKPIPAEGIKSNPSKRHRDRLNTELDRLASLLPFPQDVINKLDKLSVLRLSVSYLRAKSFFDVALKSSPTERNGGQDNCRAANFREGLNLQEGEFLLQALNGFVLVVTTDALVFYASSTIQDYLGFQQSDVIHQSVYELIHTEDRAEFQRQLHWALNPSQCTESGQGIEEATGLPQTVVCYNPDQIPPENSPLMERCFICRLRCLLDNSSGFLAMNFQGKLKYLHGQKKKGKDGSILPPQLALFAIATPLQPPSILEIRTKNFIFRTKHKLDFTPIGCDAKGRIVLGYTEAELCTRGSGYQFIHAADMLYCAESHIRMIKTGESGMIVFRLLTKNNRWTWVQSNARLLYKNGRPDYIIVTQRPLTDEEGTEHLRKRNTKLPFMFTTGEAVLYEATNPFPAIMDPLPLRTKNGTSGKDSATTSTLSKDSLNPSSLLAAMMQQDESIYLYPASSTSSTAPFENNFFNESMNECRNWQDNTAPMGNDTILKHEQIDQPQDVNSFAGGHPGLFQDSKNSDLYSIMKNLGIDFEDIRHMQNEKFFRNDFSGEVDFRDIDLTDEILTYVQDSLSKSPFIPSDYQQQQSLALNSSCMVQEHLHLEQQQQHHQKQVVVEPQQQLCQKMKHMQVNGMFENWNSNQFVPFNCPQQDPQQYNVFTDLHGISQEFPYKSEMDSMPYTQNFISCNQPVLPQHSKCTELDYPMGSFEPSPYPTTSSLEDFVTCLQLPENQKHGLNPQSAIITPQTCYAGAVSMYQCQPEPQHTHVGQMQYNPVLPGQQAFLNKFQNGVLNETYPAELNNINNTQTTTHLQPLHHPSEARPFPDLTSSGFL
# Method: Cis and Trans isomers were then tested for transcriptional modulatory activity in a DRE-TK-CAT containing stable cell line treated with TCDD.
# mp° C.: melting point. Ago: agonist. N.M.: not measurable. RBA: relative binding affinity of the compound for the given receptor (AhR or ER).
# The stable cell line 47DRE bearing the TCDD-responsive CAT construct was previously described (3). It was routinely grown in DMEM medium supplemented with 10% fetal calf serum (FCS), 4.5 g/L glucose, and 0.6 units/ml (10^−6 M) insulin. Unless stated otherwise, cells were established 24 hours before any experiment in a modified medium (stripped condition) containing 5% Dextran-charcoal-treated newbom calf serum instead of 10% FCS. All other components remained unchanged. […] All chemicals applied to the cells were diluted in ethanol, control cells received ethanol alone. CAT expression was assayed on whole cell extracts (100 μg protein) with a CAT-ELISA assay (Roche, Meylan, France) according to supplier's specifications. Experiments were done in triplicate.
Structure (SMILES),ER RBA (relative binding affinity) ([1]; trans-stilbenes),AhR T.A. (transcriptional activity) [2],ER RBA (relative binding affinity) ([1]; cis-stilbenes),AhR TA (transcriptional activity) [2],melting point,affinity for ER [1]
"COc1cc(/C=C/c2ccc(F)cc2)cc(OC)c1 [Compound 4f, (E)-1-(4-fluorophenyl)-2-(3,5-dimethoxyphenyl)-ethene]",N.M,Ant,–,–,–,–
"FC(F)(F)c1ccc(/C=C\c2cc(Cl)cc(Cl)c2)cc1 [Compound 5i, (Z)-1-(4-trifluoromethylphenyl)-2-(3,5-dichlorophenyl)-ethene]",–,–,N.M,Ant,–,–
"CCCCOc1ccc(/C=C\c2cc(OC)cc(OC)c2)cc1 [Compound 5h, (Z)-1-(4-butoxyphenyl)-2-(3,5-dimethoxyphenyl)-ethene]",–,–,N.M,Ant,–,–
"CCOc1ccc(/C=C/c2cc(OC)cc(OC)c2)cc1 [Compound 4g, (E)-1-(4-ethoxyphenyl)-2-(3,5-dimethoxyphenyl)-ethene]",N.M,Ant,–,–,54 to 55 °C,–
"Clc1ccc(/C=C/c2cc(Cl)cc(Cl)c2)cc1 [Compound 4b, (E)-1-(4-chlorophenyl)-2-(3,5-dichlorophenyl)-ethene]",N.M,Ant,–,–,–,without detectable affinity
"COc1ccc(/C=C\c2cc(F)cc(F)c2)cc1 [Compound 5c, (Z)-1-(4-methoxyphenyl)-2-(3,5-difluorophenyl)-ethene]",–,–,N.M,Ant,–,–
"COc1ccc(/C=C/c2cc(Cl)cc(Cl)c2)cc1 [Compound 4j, (E)-1-(4-methoxyphenyl)-2-(3,5-dichlorophenyl)-ethene]",N.M,Ant,–,–,62 to 64 °C,without detectable affinity
"Fc1ccc(/C=C\c2cc(F)cc(F)c2)cc1 [Compound 5d, (Z)-1-(4-fluorophenyl)-2-(3,5-difluorophenyl)-ethene]",–,–,N.M,Ant,–,–
"COc1ccc(/C=C\c2cc(OC)cc(OC)c2)cc1 [Compound 5a, (Z)-1-(4-methoxyphenyl)-2-(3,5-dimethoxyphenyl)-ethene]",–,–,0.06,Ant,–,–
"COc1ccc(/C=C/c2cc(OC)cc(OC)c2)cc1 [Compound 4a, (E)-1-(4-methoxyphenyl)-2-(3,5-dimethoxyphenyl)-ethene]",0.03,Ant,–,–,–,–
"COc1ccc(/C=C\c2cc(Cl)cc(Cl)c2)cc1 [Compound 5j, (Z)-1-(4-methoxyphenyl)-2-(3,5-dichlorophenyl)-ethene]",–,–,N.M,Ant,–,–
"FC(F)(F)c1ccc(/C=C/c2cc(Cl)cc(Cl)c2)cc1 [Compound 4i, (E)-1-(4-trifluoromethylphenyl)-2-(3,5-dichlorophenyl)-ethene]",N.M,Ago,–,–,98 to 100 °C,–
"COc1ccc(/C=C/c2cc(F)cc(F)c2)cc1 [Compound 4c, (E)-1-(4-methoxyphenyl)-2-(3,5-difluorophenyl)-ethene]",N.M,Ant,–,–,108 to 110 °C,–
"Fc1ccc(/C=C/c2cc(F)cc(F)c2)cc1 [Compound 4d, (E)-1-(4-fluorophenyl)-2-(3,5-difluorophenyl)-ethene]",N.M,Ant,–,–,47 to 48 °C and 47 °C,–
"CCCCOc1ccc(/C=C/c2cc(OC)cc(OC)c2)cc1 [Compound 4h, (E)-1-(4-butoxyphenyl)-2-(3,5-dimethoxyphenyl)-ethene]",N.M,Ant,–,–,54 to 56 °C,–
"CCOc1ccc(/C=C\c2cc(OC)cc(OC)c2)cc1 [Compound 5g, (Z)-1-(4-ethoxyphenyl)-2-(3,5-dimethoxyphenyl)-ethene]",–,–,N.M,Ant,–,–
"FC(F)(F)c1ccc(/C=C\c2cc(C(F)(F)F)cc(C(F)(F)F)c2)cc1 [Compound 5e, (Z)-1-(4-trifluoromethylphenyl)-2-(3,5-ditrifluoromethylphenyl)-ethene]",–,–,N.M,Ant,–,–
"COc1cc(/C=C\c2ccc(F)cc2)cc(OC)c1 [Compound 5f, (Z)-1-(4-fluorophenyl)-2-(3,5-dimethoxyphenyl)-ethene]",–,–,N.M,Ant,–,–
"FC(F)(F)c1ccc(/C=C/c2cc(C(F)(F)F)cc(C(F)(F)F)c2)cc1 [Compound 4e, (E)-1-(4-trifluoromethylphenyl)-2-(3,5-ditrifluoromethylphenyl)-ethene]",N.M,Ant,–,–,99 to 100 °C,without detectable affinity
"Clc1ccc(/C=C\c2cc(Cl)cc(Cl)c2)cc1 [Compound 5b, (Z)-1-(4-chlorophenyl)-2-(3,5-dichlorophenyl)-ethene]",–,–,N.M,Ant,–,–

# — patent US20040147788A1, “Stilbene derivatives and their use as aryl hydrocarbon receptor antagonistic ligands” (priority 2002, published 2004)
